# Experimental data published in patent publication US20240317801A1, “PEPTIDOMIMETIC MATRIPTASE 2 INHIBITORS AND USES THEREOF” (Disc Medicine, Inc., priority 2020, published 2024).
# Biological target: T1, Human Recombinant Matriptase 2 (Homo sapiens, UniProt Q8IU80)
# T1 construct: purchased Enzo Life Sciences ALX-201-752-1
# T1 sequence (Q8IU80 1-811): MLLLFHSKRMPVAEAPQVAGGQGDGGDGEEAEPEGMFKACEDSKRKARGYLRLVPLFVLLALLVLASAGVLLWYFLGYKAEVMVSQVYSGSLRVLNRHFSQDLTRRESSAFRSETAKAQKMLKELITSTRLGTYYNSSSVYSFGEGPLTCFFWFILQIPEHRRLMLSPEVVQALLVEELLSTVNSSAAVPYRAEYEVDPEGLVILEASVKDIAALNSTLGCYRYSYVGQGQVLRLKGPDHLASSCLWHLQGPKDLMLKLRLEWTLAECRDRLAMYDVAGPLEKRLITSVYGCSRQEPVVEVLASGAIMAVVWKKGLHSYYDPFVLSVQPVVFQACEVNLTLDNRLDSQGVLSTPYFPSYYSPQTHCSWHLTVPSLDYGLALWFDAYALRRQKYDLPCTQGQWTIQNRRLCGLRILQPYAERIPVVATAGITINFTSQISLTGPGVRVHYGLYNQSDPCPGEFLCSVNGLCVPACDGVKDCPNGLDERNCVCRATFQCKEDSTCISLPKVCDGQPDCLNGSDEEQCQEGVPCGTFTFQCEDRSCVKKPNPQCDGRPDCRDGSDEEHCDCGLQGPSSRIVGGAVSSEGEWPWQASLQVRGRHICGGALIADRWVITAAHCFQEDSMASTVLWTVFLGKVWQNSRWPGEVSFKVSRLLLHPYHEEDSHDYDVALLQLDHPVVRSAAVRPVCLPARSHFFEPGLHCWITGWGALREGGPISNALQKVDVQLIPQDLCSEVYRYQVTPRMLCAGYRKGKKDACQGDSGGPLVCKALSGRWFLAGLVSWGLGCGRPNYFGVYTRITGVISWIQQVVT
# Test: Matriptase 2 fluorescence-based inhibition assay (Boc-Gln-Ala-Arg-AMC substrate)
# Type: biochemical
# Settings: Ki derived from measured IC50 using Cheng-Prusoff equation; 30 min preincubation, 100 μM substrate, 25° C., pH 7.5; read-out: Mat-2 Ki
# Description: Test compounds were evaluated for their potential to inhibit Human Recombinant Matriptase 2 (in-house and commercial protein from Enzo Life Sciences—cat log—ALX-201-752-1) using fluorescence-based assay. The concentration of Recombinant Matriptase 2 and the substrate used in the assay were: 7 nM (commercial) and 15 nM (In-house Matriptase 2) and 100 μM (Boc-Gln-Ala-Arg-7-amido-4-methyl coumarin hydrobromide—Cat log: B4153-Sigma and I-1550 from Bachem) respectively. The assay buffer used comprised 50 mM TRIS pH 7.5, 150 mM NaCl, 0.01% gelatin (G1393 Sigma). The assay was performed by using 384 well black flat bottom plate from Grenier (Cat log: 781076) at 25° C. The enzyme and the test compound were preincubated for 30 mins, and the plate was read at wavelength Ex: 360/Em:480 nm60 mins after substrate addition. The final assay volume of was 20 μl. Stock solution of compounds were initially prepared in DMSO, which were appropriately diluted for screening to determine IC50 determination (final DMSO conc in the assay was 1%). All the measurements were carried out using the Spectramax M5, Molecular devices. The test compounds were screened at 1 and 10 μM concentrations and IC50 was determined for the interested compounds.
# Ki is the binding affinity of an inhibitor. Mat-2 Ki as described herein is the binding affinity of an inhibitor such as a compound as described and provided herein to Mat-2. Mat-2 Ki values are derived from the measured IC50. To determine IC50 values, dose-response curves were generated by plotting percentage inhibition as a function of inhibitor concentration and the data was fitted to a sigmoidal non-linear regression equation (variable slope) using Graph Pad Prism software V7. Mat-2 Ki values as described herein were derived from the IC50 using the Cheng-Prusoff equation, which is understood and appreciated by one the skill in the art. The Mat-2 Ki values of tested compounds as described herein are shown in Table A. Accordingly, the compounds can be used to inhibit matriptase 2 and treat diseases and conditions associated with matriptase 2, such as those described herein.
row,Ki [nM],Compound
1,≥ 1000,C[C@@H](O)[C@H](NC(=O)[C@H](CCc1ccccc1)NC(=O)CCc1ccccc1)C(=O)N[C@@H](CCCNC(=N)N)C(=O)C(=O)N(C)C
2,≤ 100,C[C@@H](O)[C@H](NC(=O)[C@H](Cc1cscn1)NC(=O)CCc1ccccc1)C(=O)N[C@@H](CCCNC(=N)N)C(=O)C(=O)NC1CC1
3,≤ 100,CO[C@H](C)[C@H](NC(=O)[C@H](CCc1ccccc1)NC(=O)CCc1ccccc1)C(=O)N[C@@H](CCCNC(=N)N)C(=O)C(=O)NC1CC1
4,≥ 1000,CCNC(=O)C(=O)C(Cc1cccc(Cl)c1)NC(=O)[C@@H](NC(=O)[C@H](CCc1ccccc1)NC(=O)CCc1ccccc1)[C@@H](C)O (stereo partly shown)
5,≤ 100,N=C(N)NCCC[C@H](NC(=O)C1(NC(=O)[C@H](CCc2ccccc2)NC(=O)CCc2ccccc2)CCC1)C(=O)C(=O)NC1CC1
6,≤ 100,CC(C)[C@H](NC(=O)[C@H](Cc1cscn1)NC(=O)OCc1ccccc1)C(=O)N[C@@H](CCCNC(=N)N)C(=O)C(=O)NC(C)(C)C
7,≥ 1000,C[C@@H](O)[C@H](NC(=O)[C@H](CCc1ccccc1)NC(=O)CCc1ccccc1)C(=O)NC(CCc1nc(N)no1)C(=O)C(=O)NC(C)(C)C (stereo partly shown)
8,≤ 100,C[C@H](O)[C@H](NC(=O)[C@H](CCc1ccccc1)NC(=O)OCc1ccccc1)C(=O)N[C@@H](CCCNC(=N)N)C(=O)C(=O)NC(C)(C)C
9,≤ 100,C[C@H](O)[C@H](NC(=O)[C@H](Cc1cscn1)NC(=O)OCc1ccccc1)C(=O)N[C@@H](CCCNC(=N)N)C(=O)C(=O)NC(C)(C)C
10,≤ 100,C[C@H](O)[C@H](NC(=O)[C@H](CCc1ccccc1)NC(=O)CCc1ccccc1)C(=O)N[C@@H](CCCNC(=N)N)C(=O)C(=O)N[C@@H]1C[C@@H]1F
11,≤ 100,CO[C@@H](C)C(NC(=O)[C@H](Cc1cscn1)NC(=O)OCc1ccccc1)C(=O)NC(CCCNC(=N)N)C(=O)C(=O)NC(C)(C)C (stereo partly shown)
12,≤ 100,CO[C@H](C)[C@H](NC(=O)[C@H](Cc1cscn1)NC(=O)OC(C)C)C(=O)NC(CCCNC(=N)N)C(=O)C(=O)NC(C)(C)C (stereo partly shown)
13,≤ 100,CC(C)(C)NC(=O)C(=O)[C@H](CCCNC(=N)N)NC(=O)C1COCCN1C(=O)[C@H](Cc1cscn1)NC(=O)OCc1ccccc1 (stereo partly shown)
14,≤ 100,CO[C@@H](C)[C@H](NC(=O)C(CCc1ccccc1)NC(=O)OCc1ccccc1)C(=O)NC(CCCNC(=N)N)C(=O)C(=O)NC(C)(C)C (stereo partly shown)

# The next lines start with the molecule.
row,Compound,Ki [nM]
1,C[C@@H](O)[C@H](NC(=O)[C@H](CCc1ccccc1)NC(=O)CCc1ccccc1)C(=O)N[C@@H](CCCNC(=N)N)C(=O)C(N)=O,≤ 100
2,CNC(=O)C(=O)[C@H](CCCNC(=N)N)NC(=O)[C@@H](NC(=O)[C@H](CCc1ccccc1)NC(=O)CCc1ccccc1)[C@@H](C)O,≤ 100
3,CCNC(=O)C(=O)C(CCCNC(=N)N)NC(=O)[C@@H](NC(=O)[C@H](CCc1ccccc1)NC(=O)CCc1ccccc1)[C@@H](C)O (stereo partly shown),≤ 100
4,CNC(=O)C(O)C(CCCNC(=N)N)NC(=O)[C@@H](NC(=O)[C@H](CCc1ccccc1)NC(=O)CCc1ccccc1)[C@@H](C)O (stereo partly shown),≥ 1000
5,CCOC(=O)CNC(=O)C(=O)C(CCCNC(=N)N)NC(=O)[C@@H](NC(=O)C(CCc1ccccc1)NC(=O)CCc1ccccc1)[C@@H](C)O (stereo partly shown),100 to 1000
6,CC(C)[C@H](NC(=O)[C@H](Cc1cscn1)NC(=O)CCc1ccccc1)C(=O)N[C@@H](CCCNC(=N)N)C(=O)C(=O)NC1CC1,≤ 100
7,C[C@H](O)[C@H](NC(=O)[C@H](CCc1ccccc1)NC(=O)CCc1ccccc1)C(=O)NC(CCCNC(=N)N)C(=O)C(=O)NC1CC1 (stereo partly shown),≤ 100
8,CNC(=O)C(=O)[C@H](CCCNC(=N)N)NC(=O)[C@@H](NC(=O)[C@H](CCc1ccccc1)NC(=O)OCc1ccccc1)[C@@H](C)O,≤ 100
9,C[C@@H](O)[C@H](NC(=O)C(CCc1ccccc1)NC(=O)CCc1ccccc1)C(=O)NC(Cc1cccc(CN)c1)C(=O)C(=O)NC1CC1 (stereo partly shown),100 to 1000
10,C[C@@H](O)[C@H](NC(=O)C(CCc1ccccc1)NC(=O)CCc1ccccc1)C(=O)NC(Cc1ccc(N)nc1)C(=O)C(=O)NC1CC1 (stereo partly shown),≥ 1000
11,C[C@@H](O)[C@H](NC(=O)[C@H](CCc1ccccc1)NC(=O)CCc1ccccc1)C(=O)N[C@@H](CCCNC(=N)N)C(=O)C(=O)NC1(c2cccnc2)CC1,≤ 100
12,C[C@H](O)[C@H](NC(=O)[C@H](CCc1ccccc1)NC(=O)CCc1ccccc1)C(=O)NC(CCCNC(=N)N)C(=O)C(=O)NC(C)(C)C (stereo partly shown),≤ 100
13,C[C@@H](O)[C@H](NC(=O)[C@H](Cc1cscn1)NC(=O)OCc1ccccc1)C(=O)N[C@@H](CCCNC(=N)N)C(=O)C(=O)NC(C)(C)C,≤ 100
14,C[C@@H](O)[C@H](NC(=O)[C@H](Cc1cscn1)NC(=O)CCc1ccccc1)C(=O)N[C@@H](CCCNC(=N)N)C(=O)C(=O)NC(C)(C)C,≤ 100
15,CC(C)[C@H](NC(=O)[C@H](Cc1cscn1)NC(=O)CCc1ccccc1)C(=O)N[C@@H](CCCNC(=N)N)C(=O)C(=O)NC(C)(C)C,≤ 100
16,C[C@@H](O)[C@H](NC(=O)[C@H](Cc1cccnc1)NC(=O)OCc1ccccc1)C(=O)NC(CCCNC(=N)N)C(=O)C(=O)NC(C)(C)C (stereo partly shown),≤ 100
17,CO[C@@H]1CC(C(=O)N[C@@H](CCCNC(=N)N)C(=O)C(=O)NC(C)(C)C)N(C(=O)[C@H](Cc2cscn2)NC(=O)OCc2ccccc2)C1 (stereo partly shown),≤ 100
18,CC(C)(C)NC(=O)C(=O)[C@H](CCCNC(=N)N)NC(=O)C1C[C@@H](O)CN1C(=O)[C@H](Cc1cscn1)NC(=O)OCc1ccccc1 (stereo partly shown),≤ 100
19,CC(C)(C)NC(=O)C(=O)C(CCCNC(=N)N)NC(=O)C1(NC(=O)[C@H](Cc2cscn2)NC(=O)OCc2ccccc2)CCCC1 (stereo partly shown),≤ 100
20,C[C@@H](O)[C@H](NC(=O)[C@H](Cc1ccc(F)cc1)NC(=O)OCc1ccccc1)C(=O)NC(CCCNC(=N)N)C(=O)C(=O)NC(C)(C)C (stereo partly shown),≤ 100
21,CO[C@H](C)[C@H](NC(=O)C(Cc1cscn1)NC(=O)OCc1ccccc1)C(=O)NC(Cc1ccnc(N)c1)C(=O)C(=O)NC(C)(C)C (stereo partly shown),≤ 100
22,C[C@@H](O)[C@H](NC(=O)C(CCc1ccccc1)NC(=O)OCc1ccccc1)C(=O)NC(CCCS(C)(=N)=O)C(=O)C(=O)NC(C)(C)C (stereo partly shown),≥ 1000
23,C[C@@H](O)[C@H](NC(=O)C(CCc1ccccc1)NC(=O)OCc1ccccc1)C(=O)NC(CCc1ccc(N)nc1)C(=O)C(=O)NC(C)(C)C (stereo partly shown),100 to 1000
24,"C[C@@H](O)[C@H](NC(=O)[C@H](CCc1ccccc1)NC(=O)CCc1ccccc1)C(=O)NC(CCCNC(=N)N)C(=O)C(=O)NCc1cccnc1 (stereo partly drawn) [6-guanidino-3-((2S,3R)-3-hydroxy-2-((S)-4-phenyl-2-(3-phenylpropanamido)butanamido)butanamido)-2-oxo-N-(pyridin-3-ylmethyl)hexanamide]",≤ 100
25,"N=C(N)NCCC[C@H](NC(=O)[C@@H]1C[C@@H](OCc2ccccc2)CN1C(=O)[C@H](CCc1ccccc1)NC(=O)CCc1ccccc1)C(=O)C(=O)NC1CC1 [(2S,4R)-4-(benzyloxy)-N—((S)-1-(cyclopropylamino)-6-guanidino-1,2-dioxohexan-3-yl)-1-((S)-4-phenyl-2-(3-phenylpropanamido)butanoyl)pyrrolidine-2-carboxamide]",≤ 100
26,"N=C(N)NCCC[C@H](NC(=O)[C@@H]1C[C@@H](O)CN1C(=O)[C@H](CCc1ccccc1)NC(=O)CCc1ccccc1)C(=O)C(=O)NC1CC1 [(2S,4R)—N—((S)-1-(cyclopropylamino)-6-guanidino-1,2-dioxohexan-3-yl)-4-hydroxy-1-((S)-4-phenyl-2-(3-phenylpropanamido)butanoyl)pyrrolidine-2-carboxamide]",≤ 100
